Reference: ChEMBL document CHEMBL4813910, “Curse or Cure? A Perspective on the Developability of Aldehydes as Active Pharmaceutical Ingredients” (J Med Chem, 2020)

Key:
[1] = Elimination half life in human at 20 mg/kg, iv measured over 1 hr; assay type: ADME, organism-based; settings: in vivo, read-out: beta t1/2 (converted)
[2] = AUC (0 to 24 hrs) in human at 20 mg/kg, iv measured over 1 hr; assay type: ADME, organism-based; set-up: route intravenous, time 1 hrs, dose 20 mg/kg; settings: in vivo
[3] = Volume of distribution in human at 20 mg/kg, iv measured over 1 hr; assay type: ADME, organism-based; settings: in vivo
[4] = Ratio of drug level in human erythrocytes to plasma at 20 mg/kg, iv measured over 1 hr; assay type: ADME, organism-based
[5] = Oral bioavailability in human at 0.7 mg/kg; assay type: ADME, organism-based; settings: in vivo
[6] = Bioavailability in human at 10.3 mg; assay type: ADME, organism-based; settings: in vivo
[7] = Drug excretion in human urine at 0.7 mg/kg, po measured after 8 to 24 hrs; assay type: ADME, organism-based; settings: time 8-24 hrs, read-out: Drug excretion
[8] = Half life in human at 0.7 mg/kg, po; assay type: ADME, organism-based; settings: in vivo
[9] = Renal clearance in human at 20 mg/kg, IM; assay type: ADME, organism-based; settings: in vivo
[10] = Bioavailability in human at 20 mpk, IM; assay type: ADME, organism-based; settings: in vivo, dose 20 mg/kg
[11] = Volume of distribution at steady state in human at 20 mg/kg, IM; assay type: ADME, organism-based; settings: in vivo
[12] = Half life in human at 20 mg/kg, IM; assay type: ADME, organism-based; settings: in vivo
[13] = Tmax in human at 20 mg/kg, IM; assay type: ADME, organism-based; settings: in vivo
[14] = Cmax in human at 20 mg/kg, IM; assay type: ADME, organism-based; set-up: route […], dose 20 mg/kg; settings: in vivo
[15] = Protein binding in human plasma at 20 mg/kg, IM; assay type: ADME, organism-based; settings: read-out: PPB (converted)
[16] = Drug excretion in human at 20 mg/kg, IM measured for 24 hrs; assay type: ADME, organism-based; settings: in vivo, read-out: Drug excretion
[17] = Drug excretion in human urine assessed as maximum urinary excretion of pyridoxic-acid at 3.36 mg, po; assay type: ADME, tissue-based; settings: in vivo
[18] = Drug excretion in human assessed as time of maximum urinary excretion of pyridoxic-acid at 3.36 mg, po; assay type: ADME; settings: in vivo
[19] = Drug excretion in human urine at 3.36 mg, po measured within 24 hrs; assay type: ADME, organism-based; settings: in vivo
[20] = Cmax in human at 3.36 mg, po measured for 7 days; assay type: ADME, organism-based; set-up: route oral, time 7 day, dose 3.36 mg; settings: in vivo
[21] = Drug metabolism in human assessed as pyridoxal-5-phosphate Tmax at 3.36 mg, po; assay type: ADME; settings: in vivo
[22] = Drug metabolism in human assessed as pyridoxal-5-phosphate Cmax at 3.36 mg, po; assay type: ADME; set-up: route oral, dose 3.36 mg; settings: in vivo
[23] = Tmax in human at 3.36 mg, po; assay type: ADME; settings: in vivo
[24] = Drug excretion in human urine at 2 g, po measured within 24 hrs; assay type: ADME, organism-based; settings: in vivo
[25] = Cmax in human serum at 2 g, po; assay type: ADME, cell-free; set-up: route oral, dose 2 g
[26] = Half life in human at 2 g, po; assay type: ADME; settings: in vivo
[27] = Drug excretion in human urine at 0.5 g, iv measured within 24 hrs; assay type: ADME, organism-based; settings: in vivo
[28] = Total clearance in human at 0.5 g, iv; assay type: ADME; settings: in vivo
[29] = Volume of distribution at steady state in human at 0.5 g, iv; assay type: ADME; settings: in vivo
[30] = Tmax in human at 2 g, po; assay type: ADME; settings: in vivo
[31] = Renal clearance in human at 0.5 g, iv; assay type: ADME; settings: in vivo
[32] = AUC (0 to infinity) in human serum at 2 g, po; assay type: ADME, cell-free; set-up: route oral, time infinity, dose 2 g
[33] = Protein binding in human plasma at 2 g, po; assay type: ADME, cell-free
[34] = Half life in human at 0.5 g, iv; assay type: ADME; settings: in vivo
[35] = Cmax in human at 0.5 g, iv; assay type: ADME; set-up: route intravenous, dose 0.5 g; settings: in vivo
[36] = Cmax in human at 2 g, po; assay type: ADME; set-up: route oral, dose 2 g; settings: in vivo
[37] = Tmax in human serum at 2 g, po; assay type: ADME
[38] = Oral bioavailability in human at 2 g; assay type: ADME, organism-based; settings: in vivo
[39] = Non-renal clearance in human at 0.5 g, iv; assay type: ADME; settings: in vivo
[40] = Volume of distribution at steady state in mouse at 1 mg/kg, iv; assay type: ADME, organism-based; settings: in vivo, read-out: Vdss
[41] = Cmax in mouse at 3 mg/kg, po; assay type: ADME, organism-based; set-up: route oral, dose 3 mg/kg; settings: in vivo
[42] = AUC (0 to 24 hrs) in mouse at 1 mg/kg, iv; assay type: ADME, organism-based; set-up: time < 24 hr, route intravenous, dose 1 mg/kg; settings: in vivo
[43] = Clearance in mouse at 1 mg/kg, iv; assay type: ADME, organism-based; settings: in vivo
[44] = Half life in mouse at 1 mg/kg, iv; assay type: ADME, organism-based; settings: in vivo
[45] = Oral bioavailability in mouse at 3 mg/kg; assay type: ADME, organism-based; settings: in vivo
[46] = AUC (0 to 24 hrs) in mouse at 3 mg/kg, po; assay type: ADME, organism-based; set-up: time < 24 hr, route oral, dose 3 mg/kg; settings: in vivo
[47] = Tmax in mouse at 3 mg/kg, po; assay type: ADME, organism-based; settings: in vivo
[48] = Half life in dog plasma at 5 ug/ml incubated for 1 to 24 hrs by LC/MS/MS method; assay type: ADME, cell-free, Canis lupus familiaris; settings: time 1-24 hrs, dose 5 µg/ml
[49] = Half life in human plasma at 5 ug/ml incubated for 1 to 24 hrs by LC/MS/MS method; assay type: ADME, cell-free; settings: time 1-24 hrs, dose 5 µg/ml
[50] = Half life in mouse plasma at 5 ug/ml incubated for 1 to 24 hrs by LC/MS/MS method; assay type: ADME, cell-free; settings: time 1-24 hrs, dose 5 µg/ml
[51] = Drug metabolism in human assessed as pyridoxal-5-phosphate Cmax at 4 mg, po; assay type: ADME; set-up: route oral, dose 4 mg; settings: in vivo
[52] = Drug excretion in human urine assessed as maximum urinary excretion of pyridoxic-acid at 4 mg, po; assay type: ADME; settings: in vivo, 24 h
[53] = Drug metabolism in human assessed as pyridoxal-5-phosphate Tmax at 4 mg, po; assay type: ADME; settings: in vivo
[54] = Drug excretion in human urine at 4 mg, po measured within 24 hrs; assay type: ADME, organism-based; settings: in vivo
[55] = Drug excretion in human urine assessed as time of maximum urinary excretion of pyridoxic-acid at 4 mg, po; assay type: ADME, tissue-based; settings: in vivo
[56] = Tmax in human at 4 mg, po; assay type: ADME; settings: in vivo
[57] = Cmax in human at 4 mg, po; assay type: ADME; set-up: route oral, dose 4 mg; settings: in vivo

O=Cc1c(O)cccc1OCCCCC(=O)O [VELARESOL]
half-life [1]: 2.2 h | AUC [2]: 5.18 µM·h | Vd [3]: 0.067 L/kg | Kp at 1 h [4]: 14.3

O=C/C=C/c1ccccc1
bioavailability [5]: 100% | bioavailability [6]: 9% | dose excreted [7]: 100% | half-life [8]: < 4 h

[H]/N=C(/N)N[C@H]1[C@H](O)[C@@H](O)[C@H](O[C@@H]2O[C@@H](C)[C@](O)(C=O)[C@H]2O[C@@H]2O[C@@H](CO)[C@H](O)[C@@H](O)[C@@H]2NC)[C@@H](N/C(N)=N\[H])[C@@H]1O [STREPTOMYCIN]
CL renal [9]: 30 mL/min | bioavailability [10]: 80% | Vdss [11]: 1.77 L/kg | half-life [12]: 5.3 h | Tmax [13]: 0.5 h | Cmax [14]: 43000 nM | fraction unbound [15]: 0.52 | dose excreted at 24 h [16]: 39%

Cc1ncc(CO)c(C=O)c1O [PYRIDOXAL]
Drug excretion [17]: 1.6 µmol/h | Time [18]: 1 h | Drug excretion [19]: 1.2 µmol | Cmax [20]: 280 nM | Tmax [21]: 1 h | Cmax [22]: 18 nM | Tmax [23]: 0.5 h

SPIRAMYCIN
Drug excretion [24]: 4.4% | Cmax [25]: 3700 nM | t1/2 [26]: 6.23 h | Drug excretion [27]: 13.9% | CL [28]: 1.14 L/min | Vdss [29]: 5.5 L/kg | Tmax [30]: 4 h | CL [31]: 144.2 mL/min | AUC [32]: 12 µM·h | PPB [33]: 48% | t1/2 [34]: 5.54 h | Cmax [35]: 2700 nM | Cmax [36]: 2000 nM | Tmax [37]: 3.3 h | F [38]: 10% | CL [39]: 887 mL/min

COCCNc1cc(NC(=O)N2CCCc3cc(CN4CCN(C)CC4=O)c(C=O)nc32)ncc1C#N [FGF401]
Vd [40]: 2.3 L/kg | Cmax [41]: 200 nM | AUC [42]: 1.16 µM·h | clearance [43]: 28 mL/min/kg | half-life [44]: 1.4 h | F [45]: 21% | AUC [46]: 0.25 µM·h | Tmax [47]: 2 h

Cc1cc2c(C(C)C)c(O)c(O)cc2c(O)c1-c1c(C)cc2c(C(C)C)c(O)c(O)cc2c1O [APOGOSSYPOL]
half-life at 5 ug/ml [48]: < 1 h | half-life at 5 ug/ml [49]: < 1 h | half-life at 5 ug/ml [50]: < 1 h

Cc1ncc(CO)c(CO)c1O [PYRIDOXINE]
Cmax [51]: 30 nM | Drug excretion [52]: 0.7 µmol/h | Tmax [53]: 3 h | Drug excretion [54]: 1.5 µmol | Time [55]: 3 h | Tmax [56]: 1 h | Cmax [57]: 60 nM
